Test results published in ChEMBL document CHEMBL3098111, “Discovery of 2,5-diarylnicotinamides as selective orexin-2 receptor antagonists (2-SORAs)” (Bioorg Med Chem Lett, 2013).

Key:
[1] = biological target: D(1B) dopamine receptor (Homo sapiens) (UniProt P21918); experiment: Inhibition of human dopamine D5 receptor at 10 uM relative to control
[2] = biological target: Gastrin/cholecystokinin type B receptor (Homo sapiens) (UniProt P32239); experiment: Inhibition of human CCKB receptor at 10 uM relative to control
[3] = biological target: C-C chemokine receptor type 1 (Homo sapiens) (UniProt P32246); experiment: Inhibition of human CCR1 at 10 uM relative to control
[4] = biological target: Cannabinoid receptor 2 (Homo sapiens) (UniProt P34972); experiment: Inhibition of human CB2 receptor at 10 uM relative to control
[5] = biological target: Calcitonin receptor (Homo sapiens) (UniProt P30988); experiment: Inhibition of human calcitonin receptor at 10 uM relative to control
[6] = biological target: Calcitonin gene-related peptide type 1 receptor (Homo sapiens) (UniProt Q16602); experiment: Inhibition of human CGRP1 at 10 uM relative to control
[7] = biological target: B2 bradykinin receptor (Homo sapiens) (UniProt P30411); experiment: Inhibition of human bradykinin B2 receptor at 10 uM relative to control
B2 bradykinin receptor (Homo sapiens), sequence (P30411 whole entry): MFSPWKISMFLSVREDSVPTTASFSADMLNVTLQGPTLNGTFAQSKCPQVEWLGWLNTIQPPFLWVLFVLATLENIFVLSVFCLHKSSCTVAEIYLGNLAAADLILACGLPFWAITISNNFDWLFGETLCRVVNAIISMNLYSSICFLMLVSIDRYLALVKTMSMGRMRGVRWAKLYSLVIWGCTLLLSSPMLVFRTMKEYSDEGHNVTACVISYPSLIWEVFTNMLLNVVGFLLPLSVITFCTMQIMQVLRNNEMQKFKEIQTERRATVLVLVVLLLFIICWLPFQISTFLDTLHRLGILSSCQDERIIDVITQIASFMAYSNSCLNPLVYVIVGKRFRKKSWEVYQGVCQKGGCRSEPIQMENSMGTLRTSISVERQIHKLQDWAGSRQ

[8] = biological target: Natriuretic peptides A (Cavia porcellus) (UniProt P27596); experiment: Inhibition of guinea pig atrial natriuretic factor at 10 uM relative to control; details: Cardiac atrium
Natriuretic peptides A (Cavia porcellus), sequence (P27596 whole entry): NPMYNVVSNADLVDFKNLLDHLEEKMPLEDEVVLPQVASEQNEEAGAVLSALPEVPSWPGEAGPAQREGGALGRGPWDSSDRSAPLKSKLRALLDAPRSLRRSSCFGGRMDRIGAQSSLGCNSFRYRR

[9] = biological target: Type-1 angiotensin II receptor (Homo sapiens) (UniProt P30556); experiment: Inhibition of human angiotensin AT1 receptor at 10 uM relative to control
[10] = biological target: Androgen receptor (Rattus norvegicus) (UniProt P15207); experiment: Inhibition of rat androgen receptor at 10 uM relative to control
Androgen receptor (Rattus norvegicus), sequence (P15207 whole entry S389L): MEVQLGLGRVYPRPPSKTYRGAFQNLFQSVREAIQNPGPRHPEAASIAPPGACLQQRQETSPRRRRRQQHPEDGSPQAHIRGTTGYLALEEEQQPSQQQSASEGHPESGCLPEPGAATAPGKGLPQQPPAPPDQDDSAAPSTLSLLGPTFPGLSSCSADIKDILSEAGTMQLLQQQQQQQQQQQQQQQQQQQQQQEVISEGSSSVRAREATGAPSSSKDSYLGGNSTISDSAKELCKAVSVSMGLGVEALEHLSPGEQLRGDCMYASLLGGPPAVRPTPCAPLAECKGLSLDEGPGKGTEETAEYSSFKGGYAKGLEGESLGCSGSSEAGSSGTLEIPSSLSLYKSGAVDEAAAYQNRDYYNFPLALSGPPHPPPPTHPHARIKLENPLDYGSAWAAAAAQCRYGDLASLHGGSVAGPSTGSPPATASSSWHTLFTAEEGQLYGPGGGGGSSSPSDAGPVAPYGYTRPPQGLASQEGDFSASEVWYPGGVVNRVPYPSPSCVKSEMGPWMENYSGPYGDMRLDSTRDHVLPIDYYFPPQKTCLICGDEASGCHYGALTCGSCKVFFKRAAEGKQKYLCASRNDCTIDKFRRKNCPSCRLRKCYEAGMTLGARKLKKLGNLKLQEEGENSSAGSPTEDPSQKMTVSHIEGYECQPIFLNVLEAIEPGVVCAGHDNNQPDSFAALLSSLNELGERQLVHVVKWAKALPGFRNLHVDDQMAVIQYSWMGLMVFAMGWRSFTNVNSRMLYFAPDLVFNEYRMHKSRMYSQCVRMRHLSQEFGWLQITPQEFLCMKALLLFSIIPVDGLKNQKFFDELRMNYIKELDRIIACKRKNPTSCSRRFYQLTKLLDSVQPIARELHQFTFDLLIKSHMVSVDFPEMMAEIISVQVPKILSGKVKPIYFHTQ

[11] = biological target: Adenosine receptor A3 (Homo sapiens) (UniProt P0DMS8); experiment: Inhibition of human adenosine A3 receptor at 10 uM relative to control
[12] = biological target: Adenosine receptor A2a (Homo sapiens) (UniProt P29274); experiment: Inhibition of human adenosine A2A receptor at 10 uM relative to control
[13] = biological target: Tyrosine-protein phosphatase non-receptor type 2 (Homo sapiens) (UniProt P17706); experiment: Inhibition of human TCPTP at 10 uM relative to control
[14] = biological target: Tyrosine-protein phosphatase non-receptor type 1 (Homo sapiens) (UniProt P18031); experiment: Inhibition of human PTP1B at 10 uM relative to control
[15] = biological target: Epidermal growth factor receptor (Homo sapiens) (UniProt P00533); experiment: Inhibition of human EGF receptor at 10 uM relative to control
Epidermal growth factor receptor (Homo sapiens), sequence (P00533 whole entry): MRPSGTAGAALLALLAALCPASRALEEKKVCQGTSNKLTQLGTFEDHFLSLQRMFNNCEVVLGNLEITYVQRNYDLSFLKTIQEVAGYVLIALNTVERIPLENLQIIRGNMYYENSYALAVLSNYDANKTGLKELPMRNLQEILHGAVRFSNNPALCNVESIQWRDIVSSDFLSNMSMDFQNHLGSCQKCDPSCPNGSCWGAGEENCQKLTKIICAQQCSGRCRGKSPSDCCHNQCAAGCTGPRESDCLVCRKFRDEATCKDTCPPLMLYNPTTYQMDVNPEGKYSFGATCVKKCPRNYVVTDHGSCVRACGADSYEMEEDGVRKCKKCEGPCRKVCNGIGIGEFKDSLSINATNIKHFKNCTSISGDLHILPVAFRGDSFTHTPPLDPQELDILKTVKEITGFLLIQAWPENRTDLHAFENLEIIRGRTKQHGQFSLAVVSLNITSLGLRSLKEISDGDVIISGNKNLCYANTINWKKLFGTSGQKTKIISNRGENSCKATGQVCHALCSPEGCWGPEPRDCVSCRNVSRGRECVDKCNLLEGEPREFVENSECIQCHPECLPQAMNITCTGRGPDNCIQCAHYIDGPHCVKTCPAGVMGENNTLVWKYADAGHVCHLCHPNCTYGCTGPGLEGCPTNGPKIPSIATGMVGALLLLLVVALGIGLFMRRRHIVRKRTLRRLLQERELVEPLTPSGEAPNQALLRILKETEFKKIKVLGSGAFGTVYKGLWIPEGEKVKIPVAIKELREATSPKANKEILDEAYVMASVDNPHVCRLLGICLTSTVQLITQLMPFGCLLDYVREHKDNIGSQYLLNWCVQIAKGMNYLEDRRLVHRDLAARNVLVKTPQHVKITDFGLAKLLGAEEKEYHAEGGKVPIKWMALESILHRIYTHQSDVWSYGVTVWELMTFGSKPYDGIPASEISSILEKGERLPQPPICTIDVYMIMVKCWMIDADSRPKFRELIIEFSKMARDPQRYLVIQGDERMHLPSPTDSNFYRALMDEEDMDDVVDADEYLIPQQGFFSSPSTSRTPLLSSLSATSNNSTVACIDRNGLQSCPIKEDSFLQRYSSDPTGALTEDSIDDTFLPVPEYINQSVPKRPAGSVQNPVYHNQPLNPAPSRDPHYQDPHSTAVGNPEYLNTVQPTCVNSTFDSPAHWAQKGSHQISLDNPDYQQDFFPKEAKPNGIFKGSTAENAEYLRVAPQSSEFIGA

[16] = biological target: Mitogen-activated protein kinase 3 (Homo sapiens) (UniProt P27361); experiment: Inhibition of human MAPK3 at 100 uM relative to control
[17] = biological target: Neprilysin (Homo sapiens) (UniProt P08473); experiment: Inhibition of human neutral endopeptidase at 10 uM relative to control
Caspase-8 (Homo sapiens) = Caspase-8 (Homo sapiens) (UniProt Q14790); experiment: Inhibition of human caspase 8 at 10 uM relative to control
Caspase-7 (Homo sapiens) = Caspase-7 (Homo sapiens) (UniProt P55210); experiment: Inhibition of human caspase 7 at 10 uM relative to control
Caspase-7 (Homo sapiens), sequence (P55210 24-198 limits assumed): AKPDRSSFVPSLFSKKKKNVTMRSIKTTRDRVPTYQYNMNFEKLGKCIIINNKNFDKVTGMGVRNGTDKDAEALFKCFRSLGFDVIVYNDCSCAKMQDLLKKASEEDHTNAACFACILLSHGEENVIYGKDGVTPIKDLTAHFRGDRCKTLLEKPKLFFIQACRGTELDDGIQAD
Caspase-7 (Homo sapiens), sequence (P55210 207-303 limits assumed): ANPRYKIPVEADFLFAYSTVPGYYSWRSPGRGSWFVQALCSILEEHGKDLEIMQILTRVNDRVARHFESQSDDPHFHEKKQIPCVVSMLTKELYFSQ

Caspase-3 (Homo sapiens) = Caspase-3 (Homo sapiens) (UniProt P42574); experiment: Inhibition of human caspase 3 at 10 uM relative to control
Caspase-3 (Homo sapiens), sequence (P42574 29-175 limits assumed): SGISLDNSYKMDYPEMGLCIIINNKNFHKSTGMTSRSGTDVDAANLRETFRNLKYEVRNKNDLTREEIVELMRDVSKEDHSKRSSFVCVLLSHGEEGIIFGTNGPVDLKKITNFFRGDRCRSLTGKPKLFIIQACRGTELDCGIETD
Caspase-3 (Homo sapiens), sequence (P42574 176-277 limits assumed): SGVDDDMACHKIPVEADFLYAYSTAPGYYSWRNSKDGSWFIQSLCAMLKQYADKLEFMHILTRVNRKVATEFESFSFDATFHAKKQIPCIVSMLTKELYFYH

[18] = biological target: Polyunsaturated fatty acid 5-lipoxygenase (Homo sapiens) (UniProt P09917); experiment: Inhibition of human 5-lipoxygenase at 10 uM relative to control
D(3) dopamine receptor = D(3) dopamine receptor (Homo sapiens, UniProt P35462); experiment: Inhibition of human dopamine D3 receptor at 10 uM relative to control
D(3) dopamine receptor, sequence (P35462 whole entry): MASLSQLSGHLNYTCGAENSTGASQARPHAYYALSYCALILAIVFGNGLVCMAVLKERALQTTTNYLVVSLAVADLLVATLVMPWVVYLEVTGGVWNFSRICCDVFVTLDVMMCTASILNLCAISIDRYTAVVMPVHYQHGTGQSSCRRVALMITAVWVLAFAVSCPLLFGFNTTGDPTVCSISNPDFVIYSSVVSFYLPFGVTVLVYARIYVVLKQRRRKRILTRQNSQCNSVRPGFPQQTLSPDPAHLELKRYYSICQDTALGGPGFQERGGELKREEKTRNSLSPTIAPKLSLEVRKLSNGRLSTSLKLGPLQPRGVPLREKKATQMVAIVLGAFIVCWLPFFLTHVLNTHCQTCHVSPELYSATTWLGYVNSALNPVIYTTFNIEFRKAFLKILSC

Oryctolagus cuniculus = species on record: Oryctolagus cuniculus; experiment: Inhibition of rabbit monoamine transporter at 1 uM relative to control
Rattus norvegicus [19] = species on record: Rattus norvegicus; experiment: Inhibition of rat choline transporter at 10 uM relative to control
Cavia porcellus [20] = species on record: Cavia porcellus; experiment: Inhibition of guinea pig adenosine transporter at 10 nM relative to control
Cavia porcellus [21] = species on record: Cavia porcellus; experiment: Inhibition of guinea pig adenosine transporter at 0.1 uM relative to control
Cavia porcellus [22] = species on record: Cavia porcellus; experiment: Inhibition of guinea pig adenosine transporter at 1 uM relative to control
Rattus norvegicus [23] = species on record: Rattus norvegicus; experiment: Inhibition of rat sodium channel site 2 at 10 uM relative to control
[24] = biological target: 5-hydroxytryptamine receptor 6 (Homo sapiens) (UniProt P50406); experiment: Inhibition of human 5-HT6 receptor at 10 uM relative to control
[25] = biological target: 5-hydroxytryptamine receptor 2B (Homo sapiens, UniProt P41595); experiment: Inhibition of human 5-HT2B receptor at 10 uM relative to control
[26] = biological target: 5-hydroxytryptamine receptor 1B (Rattus norvegicus) (UniProt P28564); experiment: Inhibition of rat 5-HT1B receptor at 0.1 uM relative to control
Rattus norvegicus [27] = species on record: Rattus norvegicus; experiment: Inhibition of rat 5-HT1 receptor at 10 uM relative to control
[28] = biological target: Prostaglandin F2-alpha receptor (Homo sapiens) (UniProt P43088); experiment: Inhibition of human prostanoid FP receptor at 10 uM relative to control
[29] = biological target: Prostaglandin E2 receptor EP4 subtype (Homo sapiens) (UniProt P35408); experiment: Inhibition of human prostanoid EP4 receptor at 10 uM relative to control
Cricetinae = experiment: Inhibition of hamster ATP-sensitive potassium channel at 10 uM relative to control
Rattus norvegicus [30] = species on record: Rattus norvegicus; experiment: Inhibition of rat ATP-sensitive potassium channel at 10 uM relative to control
[31] = biological target: Neuropeptide Y receptor type 1 (Homo sapiens) (UniProt P25929); experiment: Inhibition of human neuropeptide YY1 receptor at 10 uM relative to control
Neuropeptide Y receptor type 1 (Homo sapiens), sequence (P25929 whole entry): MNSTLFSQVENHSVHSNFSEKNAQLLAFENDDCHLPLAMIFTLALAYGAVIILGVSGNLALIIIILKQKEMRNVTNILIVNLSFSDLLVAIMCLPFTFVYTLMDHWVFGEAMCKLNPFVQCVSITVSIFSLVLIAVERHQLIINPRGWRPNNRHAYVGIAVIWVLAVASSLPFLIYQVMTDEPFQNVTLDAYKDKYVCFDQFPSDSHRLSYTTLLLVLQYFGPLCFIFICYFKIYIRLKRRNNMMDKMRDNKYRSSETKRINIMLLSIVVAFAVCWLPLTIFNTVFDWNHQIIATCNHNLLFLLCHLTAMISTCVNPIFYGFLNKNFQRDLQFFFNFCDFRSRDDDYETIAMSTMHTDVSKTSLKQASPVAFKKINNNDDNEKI

[32] = biological target: Muscarinic acetylcholine receptor M4 (Homo sapiens) (UniProt P08173); experiment: Inhibition of human muscarinic M4 receptor at 10 uM relative to control
[33] = biological target: Melanocortin receptor 5 (Homo sapiens) (UniProt P33032); experiment: Inhibition of human MC5 receptor at 10 uM relative to control
[34] = biological target: Histamine H4 receptor (Homo sapiens) (UniProt Q9H3N8); experiment: Inhibition of human histamine H4 receptor at 10 uM relative to control
[35] = biological target: Histamine H3 receptor (Homo sapiens) (UniProt Q9Y5N1); experiment: Inhibition of human histamine H3 receptor at 10 uM relative to control
Histamine H3 receptor (Homo sapiens), sequence (Q9Y5N1 whole entry): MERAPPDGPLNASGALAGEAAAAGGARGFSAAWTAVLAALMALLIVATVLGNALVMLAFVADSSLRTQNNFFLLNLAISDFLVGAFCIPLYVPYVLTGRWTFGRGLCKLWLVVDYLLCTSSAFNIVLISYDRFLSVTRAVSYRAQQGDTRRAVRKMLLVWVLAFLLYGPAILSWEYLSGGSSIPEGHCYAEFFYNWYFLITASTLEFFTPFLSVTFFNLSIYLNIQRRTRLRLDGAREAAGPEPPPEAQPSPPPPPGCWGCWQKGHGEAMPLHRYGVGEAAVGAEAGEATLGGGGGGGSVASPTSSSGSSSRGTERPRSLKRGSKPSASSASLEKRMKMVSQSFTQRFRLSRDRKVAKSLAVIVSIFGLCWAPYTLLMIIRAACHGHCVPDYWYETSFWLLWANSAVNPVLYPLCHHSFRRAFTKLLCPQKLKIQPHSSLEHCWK

[36] = biological target: T1, Glutamate NMDA receptor (Rattus norvegicus) (UniProt P35439+Q00959+Q00960+Q00961+Q62645+Q8VHN2+Q9R1M7); experiment: Inhibition of rat NMDA receptor phencyclidine binding site at 10 uM relative to control; format: protein-complex assay
[37] = biological target: T1, Glutamate NMDA receptor (Rattus norvegicus); experiment: Inhibition of rat NMDA receptor glycine binding site at 10 uM relative to control; format: protein-complex assay
Rattus norvegicus [38] = species on record: Rattus norvegicus; experiment: Inhibition of rat AMPA receptor at 10 uM relative to control
[39] = biological target: GABA-A receptor; alpha-5/beta-3/gamma-2 (Homo sapiens) (UniProt P18507+P28472+P31644); experiment: Inhibition of human GABA alpha5beta3gamma2 receptor at 10 uM relative to control; format: protein-complex assay
[40] = biological target: Vasoactive intestinal polypeptide receptor 1 (Homo sapiens) (UniProt P32241); experiment: Inhibition of human VIP1 receptor at 10 uM relative to control

D(1B) dopamine receptor (Homo sapiens), sequence (P21918 whole entry): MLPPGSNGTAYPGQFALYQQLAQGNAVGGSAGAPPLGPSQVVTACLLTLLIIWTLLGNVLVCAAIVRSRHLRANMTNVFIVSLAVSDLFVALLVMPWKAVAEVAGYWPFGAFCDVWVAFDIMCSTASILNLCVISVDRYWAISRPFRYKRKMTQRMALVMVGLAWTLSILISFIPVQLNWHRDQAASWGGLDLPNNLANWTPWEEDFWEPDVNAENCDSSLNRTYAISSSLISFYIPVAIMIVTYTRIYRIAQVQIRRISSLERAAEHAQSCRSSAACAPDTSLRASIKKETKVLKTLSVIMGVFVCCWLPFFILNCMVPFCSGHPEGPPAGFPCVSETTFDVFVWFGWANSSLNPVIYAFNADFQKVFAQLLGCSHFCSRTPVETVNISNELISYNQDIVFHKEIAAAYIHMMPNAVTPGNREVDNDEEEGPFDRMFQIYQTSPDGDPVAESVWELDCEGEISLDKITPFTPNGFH

## COc1ccc(CNC(=O)c2cc(-c3cc(Cl)cc(Cl)c3)cnc2-c2cccnc2)cc1OC
[1]
  inhibition: 3%
[2]
  inhibition: -4%
[3]
  inhibition: 21%
[4]
  inhibition: 2%
[5]
  inhibition: 9%
[6]
  inhibition: -10%
[7]
  inhibition: -10%
[8]
  inhibition: 1%
[9]
  inhibition: 14%
[10]
  inhibition: 7%
[11]
  inhibition: 33%
[12]
  inhibition: 8%
[13]
  inhibition: 4%
[14]
  inhibition: 1%
[15]
  inhibition: 10%
[16]
  inhibition: 10%
[17]
  inhibition: -5%
Caspase-8 (Homo sapiens)
  inhibition: -1%
Caspase-7 (Homo sapiens)
  inhibition: 1%
Caspase-3 (Homo sapiens)
  inhibition: -1%
[18]
  inhibition: 44%
D(3) dopamine receptor
  inhibition: 51%
Oryctolagus cuniculus
  inhibition: 20%
Rattus norvegicus [19]
  inhibition: 1%
Cavia porcellus [20]
  inhibition: 2%
Cavia porcellus [21]
  inhibition: 15%
Cavia porcellus [22]
  inhibition: 32%
Rattus norvegicus [23]
  inhibition: 39%
[24]
  inhibition: -8%
[25]
  inhibition: 84%
[26]
  inhibition: 9%
Rattus norvegicus [27]
  inhibition: 36%
[28]
  inhibition: 19%
[29]
  inhibition: 19%
Cricetinae
  inhibition: 0%
Rattus norvegicus [30]
  inhibition: 0%
[31]
  inhibition: 23%
[32]
  inhibition: 7%
[33]
  inhibition: 9%
[34]
  inhibition: 9%
[35]
  inhibition: -3%
[36]
  inhibition: 5%
[37]
  inhibition: 9%
Rattus norvegicus [38]
  inhibition: 9%
[39]
  inhibition: 18%
[40]
  inhibition: 6%
